Measured values published in publication PMC8119466, “A screen of FDA-approved drugs identifies inhibitors of protein tyrosine phosphatase 4A3 (PTP4A3 or PRL-3)” (Scientific Reports, 2021).
Counter-ions that a name gives are not always drawn. Non-standard residues stand in square brackets, D forms with d. Residues, ends and D or L forms follow the SMILES beside them. pGlu = O=C1CC[C@@H](C(=O)O)N1; Thz = O=C(O)[C@@H]1CSCN1

Legend:
Format in all cases: biochemical
Settings in all cases: FDA-approved drug screen; compared to DMSO
[1] = biological target: T1, recombinant PRL-3 (Homo sapiens, UniProt O75365); test: In vitro phosphatase assay (DiFMUP hydrolysis), PRL-3; also: test concentration or dose not given here
T1 construct: 6xHis (N, cleaved yes); made in house; host or cells: E. coli One Shot BL21 Star
T1 sequence (O75365 whole entry): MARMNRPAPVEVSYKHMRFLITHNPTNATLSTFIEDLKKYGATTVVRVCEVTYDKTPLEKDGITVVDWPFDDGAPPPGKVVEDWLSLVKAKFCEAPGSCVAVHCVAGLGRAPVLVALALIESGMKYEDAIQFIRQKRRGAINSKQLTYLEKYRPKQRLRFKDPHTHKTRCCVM

[2] = biological target: T2, recombinant PRL-1 (Homo sapiens, UniProt Q93096); test: In vitro phosphatase assay (DiFMUP hydrolysis), PRL-1; also: test concentration or dose not given here
T2 construct: 6xHis (N, cleaved yes); made in house; host or cells: E. coli One Shot BL21 Star
T2 sequence (Q93096 1-173): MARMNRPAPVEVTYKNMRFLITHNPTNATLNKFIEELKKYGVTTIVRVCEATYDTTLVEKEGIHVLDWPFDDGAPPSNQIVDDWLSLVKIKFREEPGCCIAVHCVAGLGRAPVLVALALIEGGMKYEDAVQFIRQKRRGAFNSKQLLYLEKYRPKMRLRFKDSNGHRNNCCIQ

[3] = biological target: T3, recombinant PRL-2 (Homo sapiens, UniProt Q12974); test: In vitro phosphatase assay (DiFMUP hydrolysis), PRL-2;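 also: PRL-2 activity read as DiFMUP hydrolysis after 20 min at room temperature with drug, enzyme first pre-reduced at 4 °C for 20 min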
T3 construct: 6xHis (N, cleaved yes); made in house; host or cells: E. coli One Shot BL21 Star
T3 sequence (Q12974 1-167): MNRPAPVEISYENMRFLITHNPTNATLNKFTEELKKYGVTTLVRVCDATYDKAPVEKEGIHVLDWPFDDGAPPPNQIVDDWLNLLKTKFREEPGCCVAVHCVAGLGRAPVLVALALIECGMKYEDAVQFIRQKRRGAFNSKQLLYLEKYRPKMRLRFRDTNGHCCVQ

SMILES | % Phosphatase Activity (compared to DMSO) PRL-3 [1] [%] | % Phosphatase Activity (compared to DMSO) PRL-1 [2] [%] | % Phosphatase Activity (compared to DMSO) PRL-2 [3] [%]
O=C1c2cccc3c2[C@H](CCC3)CN1[C@@H]1CN2CCC1CC2 [Palonosetron HCl] | 117 | 90 | 96
NCCC(O)(P(=O)([O-])O)P(=O)([O-])O.[Na+].[Na+] [Pamidronate Disodium] | 91 | 98 | 80
Cc1[nH]c2ccccc2c1CCNCc1ccc(/C=C/C(=O)NO)cc1 [Panobinostat (LBH589)] | 83 | 95 | 102
COc1ccnc(C[S+]([O-])c2nc3ccc(OC(F)F)cc3[nH]2)c1OC (stereo not drawn) [Pantoprazole sodium] | 88 | 97 | 98
CCC(=O)NS(=O)(=O)c1ccc(-c2c(-c3ccccc3)noc2C)cc1 [Parecoxib] | 74 | 98 | 84
NC[C@@H]1O[C@H](O[C@H]2[C@@H](O)[C@H](O[C@@H]3[C@@H](O)[C@H](N)C[C@H](N)[C@H]3O[C@H]3O[C@H](CO)[C@@H](O)[C@H](O)[C@H]3N)O[C@@H]2CO)[C@H](N)[C@@H](O)[C@@H]1O [Paromomycin Sulfate] | 112 | 93 | 110
Cl.Fc1ccc([C@@H]2CCNC[C@H]2COc2ccc3c(c2)OCO3)cc1 [Paroxetine HCl] | 95 | 90 | 128
NNC(=O)c1ccncc1.Nc1ccc(C(=O)O)c(O)c1 [Pasiniazid] | 82 | 91 | 97
Cc1ccc(Nc2nccc(N(C)c3ccc4c(C)n(C)nc4c3)n2)cc1S(N)(=O)=O.Cl [Pazopanib HCl] | 82 | 86 | 83
Cc1ccc(Nc2nccc(N(C)c3ccc4c(C)n(C)nc4c3)n2)cc1S(N)(=O)=O [Pazopanib] | 89 | 97 | 100
CCOc1cc2ncc(C#N)c(Nc3ccc(F)c(Cl)c3)c2cc1NC(=O)/C=C/CN(C)C [Pelitinib (EKB-569)] | 97 | 111 | 120
Nc1nc2[nH]cc(CCc3ccc(C(=O)N[C@@H](CCC(=O)O)C(=O)O)cc3)c2c(=O)[nH]1 [Pemetrexed] | 98 | 92 | 86
Cc1cccn2c(=O)c(-c3nnn[nH]3)cnc12 [Pemirolast potassium] | 195 | 330 | 301
Nc1nc2c(ncn2CCC(CO)CO)c(=O)[nH]1 [Penciclovir] | 74 | 98 | 95
OC1(c2ccc(Cl)c(C(F)(F)F)c2)CCN(CCCC(c2ccc(F)cc2)c2ccc(F)cc2)CC1 [Penfluridol] | 89 | 100 | 128
CC(C)(S)[C@@H](N)C(=O)O [Penicillamine] | 97 | 85 | 100
N=C(N)c1ccc(OCCCCCOc2ccc(C(=N)N)cc2)cc1 [Pentamidine] | 95 | 113 | 116
CC(=O)CCCCn1c(=O)c2c(ncn2C)n(C)c1=O [Pentoxifylline] | 92 | 85 | 92
N#Cc1ccccc1-c1cc(-c2ccccn2)cn(-c2ccccc2)c1=O [Perampanel] | 451 | 488 | 376
CCCN1C[C@H](CSC)C[C@@H]2c3cccc4[nH]cc(c34)C[C@H]21 [Pergolide mesylate] | 90 | 109 | 119

SMILES | % Phosphatase Activity (compared to DMSO) PRL-3 [1] [%] | % Phosphatase Activity (compared to DMSO) PRL-1 [2] [%] | % Phosphatase Activity (compared to DMSO) PRL-2 [3] [%]
CCC[C@H](N[C@@H](C)C(=O)N1[C@H](C(=O)O)C[C@@H]2CCCC[C@@H]21)C(=O)OCC [Perindopril Erbumine] | 96 | 88 | 84
FC(F)(F)c1ccc(CNc2ccc(Cc3c[nH]c4ncc(Cl)cc34)cn2)cn1 [Pexidartinib (PLX3397)] | 101 | 102 | 100
Cc1ccc(-n2nc(C(C)(C)C)cc2NC(=O)NCc2cc(F)ccc2Oc2ccc3c(cnn3CCO)c2)cc1 [Pexmetinib (ARRY-614)] | 117 | 106 | 103
Nc1ccc(/N=N/c2ccccc2)c(N)n1 [Phenazopyridine HCl] | 55 | 64 | 61
[H]/N=C(/N)N/C(=N/[H])NCCc1ccccc1 [Phenformin HCl] | 89 | 114 | 120
O=C1c2ccccc2C(=O)C1c1ccccc1 [Phenindione] | 84 | 93 | 100
CN(C)CCC(c1ccccc1)c1ccccn1 (stereo not drawn) [Pheniramine Maleate] | 70 | 98 | 104
CC(COc1ccccc1)N(CCCl)Cc1ccccc1 (stereo not drawn) [Phenoxybenzamine HCl] | 81 | 106 | 112
Cc1ccc(N(CC2=NCCN2)c2cccc(O)c2)cc1 [Phentolamine Mesylate] | 90 | 92 | 117
CCCCC1C(=O)N(c2ccccc2)N(c2ccccc2)C1=O [Phenylbutazone] | 81 | 104 | 84
CNC[C@H](O)c1cccc(O)c1 [Phenylephrine HCl] | 85 | 103 | 98
O=C1NC(=O)C(c2ccccc2)(c2ccccc2)N1 [Phenytoin sodium] | 68 | 100 | 100
CC(=O)NS(=O)(=O)c1ccc(NC(=O)c2ccccc2C(=O)O)cc1 [Phthalylsulfacetamide] | 101 | 104 | 120
O=C1CC[C@@H](C(=O)N2CSC[C@H]2C(=O)O)N1 [Pidotimod] ([pGlu]-[Thz]-OH) | 83 | 113 | 103
Cc1ccc(S(=O)(=O)Nc2nc3ccccc3nc2Nc2ccc3nsnc3c2)cc1 [Pilaralisib (XL147)] | 98 | 94 | 65
O=C(NC[C@H](O)CO)c1ccncc1Nc1ccc(I)cc1F [Pimasertib (AS-703026)] | 84 | 99 | 92
CC(C)COc1ccc(CNC(=O)N(Cc2ccc(F)cc2)C2CCN(C)CC2)cc1 [Pimavanserin] | 95 | 95 | 88
CC[C@@H]1/C=C(\C)C[C@H](C)C[C@H](OC)[C@H]2O[C@@](O)(C(=O)C(=O)N3CCCC[C@H]3C(=O)O[C@H](/C(C)=C/[C@@H]3CC[C@H](Cl)[C@H](OC)C3)[C@H](C)[C@@H](O)CC1=O)[C@H](C)C[C@@H]2OC [Pimecrolimus] | 101 | 87 | 73
COc1ccc(-c2nc3ccc(C4=NNC(=O)CC4C)cc3[nH]2)cc1 (stereo not drawn) [Pimobendan] | 95 | 122 | 118
O=c1[nH]c2ccccc2n1C1CCN(CCCC(c2ccc(F)cc2)c2ccc(F)cc2)CC1 [Pimozide] | 96 | 91 | 106
